The test concerns hPSC-derived primitive splanchnic mesoderm (SM). Nature of the test: Treatment of hPSC-derived primitive SM from d4-d7 with HH, RA, Wnt and BMP agonists or antagonists; RT-PCR, immunostaining, RNA-scope. The test is classed as cell-based, human. The protocol: For RNAscope on mouse tissue, fixed embryos were immersed in 30% sucrose/PBS overnight, embedded in OCT, cryosectioned (12 μm) onto Superfrost Plus slides (Thermo Fisher) and stored at −80° C. overnight. For RNAscope of adherent hPSC culture, cells were differentiated on Geltrex-coated u-Slide 8 well (ibid) and fixed in 4% PFA at room temperature for 30 min, Cells were dehydrated with ethanol gradient and stored in 100% ethanol at −20° C. RNAscope fluorescent in situ hybridization was conducted with RNAscope Multiplex Fluorescent Detection Reagents V2 (Advanced Cell Diagnostics, Inc.) and Opal fluorophore (Akoya Biosciences) according to manufacturer's instructions.
Differentiation of hPSCs into lateral plate mesoderm was induced using previously described methods with modifications. In brief, partially confluent hPSCs were dissociated into very fine clumps in Accutase (Invitrogen) and passaged 1:18 onto new Geltrex-coated 24-well plates for immunocytochemistry and 12-well plates for RNA preparation in mTeSR1 with 1 μM thiazovivin (Tocris) (Day 1). […]
Total RNA was prepared from differentiating human ES cells by using Nucleospin kit according to manufacturer's protocol. […] Significance was determined by one-way ANOVA, followed by Tukey's test. […]

Regarding `c1ccc2c(Oc3nc(Nc4ccc(N5CCOCC5)cc4)c4ncn(C5CCCCC5)c4n3)cccc2c1` [HH-agonist, purmorphamine], the gut tube identity entry is recorded as “promoted” and the hepatic fate entry is given as “efficiently blocked”.

The record behind these values is patent US20220275341A1, “ORGANOID MESODERM LINEAGE DIVERSIFICATION” (CHILDREN'S HOSPITAL MEDICAL CENTER, priority 2019, published 2022).
